Experimental data: patent publication US9801955B2, “Methods and compositions for detecting drusen and predicting age-related macular degeneration” (University of Maryland, Baltimore, priority 2012, dated 2017)

Legend:
[1] = Fluorescent staining of zinc phosphate, specificity control (Example 2, FIG. 6); type: binding; conditions: 25 mM MOPS pH 7.5
Experimental: (§1) Briefly, the insoluble salts (100 mg in 1 ml 25 mM MOPS pH 7.5 buffer) were stained with 100 ul of 1 mg/ml dye (0.02 nmol/uL of the Bone Tag 680 RD dye) in buffer for 20 minutes at room temperature, followed by two rinses with buffer. Approximately 100 ul of the precipitate (a slurry) was suspended in propylene glycol. Fluorescence emission spectra shown in FIG. 6 were obtained at the excitation wavelengths described in the legend. […] Sub-RPE deposits can be readily identified based on their characteristic faint autofluorescence at excitation: 488 nm and emission: 525 nm).

[2] = Staining of HAP spherules in sub-RPE deposits in flat mounts of cadaver tissues (FIG. 7); set-up: species or system human; conditions: for staining of HAP spherules in sub-RPE deposits: flat mounts of cadaver tissues; for staining pattern in retinal tissue: human cadaveric eyes, FIG. 7
Experimental: The protocol of the study adhered to the tenets of the Declaration for Helsinki regarding research involving human tissue.
as §1

[3] = Fluorescent staining of authentic hydroxyapatite, emission spectra (Example 2, FIG. 6); type: binding; conditions: for fluorescence of stained hydroxyapatite: 100 mg salt in 25 mM MOPS pH 7.5, 20 minutes at room temperature, suspended in propylene glycol; for specificity for HAP in comparison to dibasic calcium phosphate or zinc phosphate: FIG. 6
Experimental: as §1

[4] = Staining of the elastin layer of the Bruch's membrane in cadaver retina; set-up: species or system human
[5] = Fluorescent staining of dibasic calcium phosphate, emission spectra (Example 2, FIG. 6); type: binding; conditions: 25 mM MOPS pH 7.5
Experimental: as §1

[6] = Staining of insoluble zinc phosphate (Example 1); type: binding
[7] = Staining of monobasic calcium phosphate; type: binding; conditions: salt slightly soluble
Text: (§2) Hydroxyapatite Bio-Gel HTP resin (Bio-Rad catalog 130-0420) (Bio-Red Laboratories, Inc., Hercules, Calif.) was used as a model for hydroxyapatite in deposits for purposes of collecting emission spectra; stained resin particles were suspended in propylene glycol for fluorescence spectroscopy. Calcium phosphate tribasic (34-40% Ca basis, cat no. C5267), Calcium hydrogen phosphate dihydrate (dibasic, 98%, cat. No. 307653) and calcium phosphate monobasic monohydrate (>85%, cat no. 21053) were all products of Sigma Aldrich and used without further purification. Fluorescence spectra were obtained on a Spectronics AB-2 spectrophotofluorometer with a high pressure xenon lamp.
(§3) The dibasic form of calcium phosphate is listed as 98% pure. […] IRDye 680RD BoneTag was also tested on HAP and drusen. This probe is a long wavelength excitable fluorophore coupled to tetracycline designed as an in vivo bone stain (J. L. Kovar et al., 2011 Anal. Biochem. 416(2):167-173).

[8] = Fluorescent staining of HAP chromatographic medium as a model for drusen; type: binding
Text: as §2, §3

[9] = Fluorescent staining of cadaver posterior retinas (sub-RPE deposits, drusen); set-up: species or system human; conditions: for increase in apparent intensity over the fluorescent background of the sub-RPE alone: cadaver posterior retinas
[10] = Staining of dibasic calcium phosphate (Example 1); type: binding; conditions: compared with HAP
Text: as §2, §3

[11] = Staining of tribasic calcium phosphate; type: binding; conditions: compared with HAP
Text: as §2, §3

[12] = Nile Red staining of neutral lipids in unfixed whole mounts with drusen on Bruch's membrane (FIG. 8); set-up: species or system human
Experimental: Flat mounts were stained with 1 mg/ml Alizarin Red S (Sigma-Aldrich; Ex: 532 nm Em:620 nm), 20 μM Bone-Tag 680RD (Li-Cor; Ex: 620 nm Em:680 nm), 1 mg/ml tetracycline (Sigma-Aldrich; Ex: 405 nm Em: 570 nm), and 1 mg/ml Xylenol Orange (Sigma-Aldrich; Ex: 532 nm Em:570 nm) in aqueous buffer for 20 minutes at room temperature. Nile Red (Invitrogen, Carsbad, Calif.; Ex: 532 nm Em: 620 nm) was first dissolved in acetone and then diluted in aqueous buffer to 3.5 mg/ml and tissues were incubated for 20 minutes at room temperature.
Without being bound by theory or mechanism, HAP may form on the surface of an existing structure at the RPE/BM interface, for example lipid droplets or lipoproteins. […] The composition of the inner core of HAP spherules was analyzed by mass spectrometric imaging (FIG. 3). […] The native chemical composition was then analysed with time-of-flight secondary ion mass spectrometry (TOF-SIMS), which is well suited, as it combines high lateral resolution (˜250 nm) and very high sensitivity in the range of parts per million, and can image molecular ions and organic molecules over a wide mass range. […] The m/e 184 ion (i.e. from the phosphocholine headgroup fragment from phospholipids) is readily detected by TOF-SIMS as a characteristic marker, so its absence from the spherules implies a strong predominance of cholesterol and/or cholesteryl esters within the spherules.

Row | Structure (SMILES) | staining of zinc phosphate [1] | staining of HAP spherules in sub-RPE deposits [2] | staining pattern in retinal tissue [2] | fluorescence of stained hydroxyapatite [3] | specificity for HAP in comparison to dibasic calcium phosphate or zinc phosphate [3] | staining of the elastin layer of the Bruch's membrane [4] | staining of dibasic calcium phosphate [5] | adherence of stain to insoluble zinc phosphate [6] | staining of monobasic calcium phosphate [7] | change in fluorescence quantum yield upon binding HAP [8] | fluorescent staining of HAP (fluorescence emission when bound) ([8]; HAP chromatographic medium, stained, rinsed in distilled water, suspended in propylene glycol) | contrast compared with tetracycline ([9]; cadaver posterior retina, excitation 550-600 nm, emission 650 nm) | increase in apparent intensity over the fluorescent background of the sub-RPE alone [9] | staining of dibasic calcium phosphate [10] | staining of tribasic calcium phosphate [11] | labelling of lipid inclusions in drusen [12]
1 | O=C1c2ccccc2C(=O)c2c1cc(S(=O)(=O)O)c(O)c2O [Alizarin Red S, 9,10-dihydro-3,4-dihydroxy-9,10-dioxo-2-anthracenesulfonic acid] | did not stain significantly | effectively stained spherules | very similar staining patterns | only significant fluorescence from stained specimens is observed with hydroxyapatite | specific for HAP | No staining | did not stain significantly | did not appear that either stain was adhered | no staining was evident | substantial increase | bright fluorescence emission when bound to the HAP that did not rinse off despite repeated washes with buffer | two-fold | fifteen-fold | less well than HAP | less well than HAP | –
2 | CCN(CC)c1ccc2nc3c4ccccc4c(=O)cc-3oc2c1 [Nile Red] | – | – | – | – | – | – | – | – | – | – | – | – | – | – | – | labelled a large number of spherical inclusions
3 | Cc1cc(C2(c3cc(C)c(O)c(CN(CC(=O)O)CC(=O)O)c3)OS(=O)(=O)c3ccccc32)cc(CN(CC(=O)O)CC(=O)O)c1O [Xylenol Orange] | did not stain significantly | effectively stained spherules | very similar staining patterns | only significant fluorescence from stained specimens is observed with hydroxyapatite | specific for HAP | – | did not stain significantly | – | – | – | – | – | – | – | – | –
4 | CN(C)[C@@H]1C(O)=C(C(N)=O)C(=O)[C@@]2(O)C(O)=C3C(=O)c4c(O)cccc4[C@@](C)(O)[C@H]3C[C@@H]12.Cl [Tetracycline HCl, Tetracycline hydrochloride] | – | – | – | – | – | – | – | – | – | – | – | – | eight-fold | less well than HAP | less well than HAP | –
